Experimental data: patent US9237747B2, “Herbicidal compositions comprising 4-amino-3-chloro-5-fluoro-6-(4-chloro-2-fluoro-3-methoxyphenyl) pyridine-2-carboxylic acid or a derivative thereof and insecticides” (priority 2013, dated 2016)
Where two headings read alike, the source gives them in different places.

How the values were obtained:
CYPIR = assay type: in vivo, Cyperus iria; details: 480 g ai/ha alone
Source text: (§1) Seeds or nutlets of the desired test plant species were planted in a soil matrix prepared by mixing a loam or sandy loam soil (e.g., 28.6 percent silt, 18.8 percent clay, and 52.6 percent sand, with a pH of about 5.8 and an organic matter content of about 1.8 percent) and calcareous grit in an 80 to 20 ratio. The soil matrix was contained in plastic pots with a volume of 1 quart and a surface area of 83.6 square centimeters (cm^2). When required to ensure good germination and healthy plants, a fungicide treatment and/or other chemical or physical treatment was applied. The plants were grown for 8-22 days in a greenhouse with an approximate 14 hour (h) photoperiod which was maintained at about 29° C. during the day and 26° C. during the night. Nutrients (Peters Excel® 15-5-15 5-Ca 2-Mg and iron chelate) were applied in the irrigation solution as needed and water was added on a regular basis. Supplemental lighting was provided with overhead metal halide 1000-Watt lamps as necessary. The plants were employed for testing when they reached the first through fourth true leaf stage.
(§2) Treatments consisted of the acid or esters of 4-amino-3-chloro-6-(4-chloro-2-fluoro-3-methoxyphenyl)-5-fluoropyridine-2-carboxylic acid (Compound A), each formulated as an SC (suspension concentrate), and various insecticidal components alone and in combination. Forms of compound A were applied on an acid equivalent basis.
(§3) Treatment requirements were calculated based upon the rates being tested, the concentration of active ingredient or acid equivalent in the formulation, and a 12 milliliter (mL) application volume at a rate of 187 liters per hectare (L/ha).
(§4) For treatments comprised of formulated compounds, measured amounts of compounds were placed individually in 25 mL glass vials and diluted in a volume of 1.25% volume per volume (v/v) Agri-Dex® crop oil concentrate to obtain 12× stock solutions. […] Application solutions were prepared by adding an appropriate amount of each stock solution (e.g., 1 mL) and diluted to the appropriate final concentrations with the addition of […] of an aqueous mixture of 1.25% (v/v) crop oil concentrate so that the final spray solutions contained 1.25+/−0.05% (v/v) crop oil concentrate.
(§5) As required, additional water and/or 97:3 v/v acetone/DMSO was added to individual application solutions so that the final acetone and DMSO concentrations of the application solutions being compared were 8.1% and 0.25%, respectively.
(§6) All stock solutions and applications solutions were visually inspected for compound compatibility prior to application. Spray solutions were applied to the plant material with an overhead Mandel track sprayer equipped with 8002E nozzles calibrated to deliver 187 L/ha over an application area of 0.503 square meters (m^2) at a spray height of 18 to 20 inches (46 to 50 cm) above average plant canopy height. Control plants were sprayed in the same manner with the solvent blank.
(§7) The treated plants and control plants were placed in a greenhouse as described above and watered by sub-irrigation to prevent wash-off of the test compounds. After approximately 3 weeks, the condition of the test plants as compared to that of the untreated plants was determined visually and scored on a scale of 0 to 100 percent where 0 corresponds to no injury or growth inhibition and 100 corresponds to complete kill.
(§8) Colby's equation was used to determine the herbicidal effects expected from the mixtures (Colby, S. R. Calculation of the synergistic and antagonistic response of herbicide combinations. Weeds 1967, 15, 20-22.).
(§9) The following equation was used to calculate the expected activity of mixtures containing two active ingredients, A and B: Expected=A+B−(A×B/100)

ECHCO = assay: Postemergence foliar-applied weed control, direct-seeded rice (greenhouse); assay type: in vivo, Echinochloa colonum
Procedure: as §1, with “When required to ensure good germination and healthy plants, a fungicide treatment and/or other chemical or physical treatment was applied.” left out
as §2, §4, §5, §6, §7, §8, §9

SCPJU = assay: as above; assay type: in vivo, Schoenoplectus juncoides; details: 480 g ai/ha alone
Source text: as §1, with “Supplemental lighting was provided with overhead metal halide 1000-Watt lamps as necessary. The plants were employed for testing when they reached the first through fourth true leaf stage.” left out
as §3
For treatments comprised of formulated compounds, measured amounts of compounds were placed individually in 25 mL glass vials and diluted in a volume of 1.25% volume per volume (v/v) Agri-Dex® crop oil concentrate to obtain 12× stock solutions. […]

LEFCH = assay: whole plant or invertebrate; assay type: in vivo, Leptochloa chinensis
Procedure: as §1, with “When required to ensure good germination and healthy plants, a fungicide treatment and/or other chemical or physical treatment was applied.” left out
as §2, §4, §5, §6, §7, §8, §9

CYPES = assay type: in vivo, Cyperus esculentus
Procedure: as §1, with “When required to ensure good germination and healthy plants, a fungicide treatment and/or other chemical or physical treatment was applied.” left out
as §2, §4, §5, §6, §7, §8, §9

ECHCG [1] = assay type: in vivo, Echinochloa crus-galli
Procedure: as §1, with “When required to ensure good germination and healthy plants, a fungicide treatment and/or other chemical or physical treatment was applied.” left out
as §2, §4, §5, §6, §7, §8, §9

IPOHE = assay type: in vivo, Ipomoea hederacea
Procedure: as §1, with “When required to ensure good germination and healthy plants, a fungicide treatment and/or other chemical or physical treatment was applied.” left out
as §2, §4, §5, §6, §7, §8, §9

ECHCG [2] = assay: In-water applied weed control, transplanted paddy rice (greenhouse); assay type: in vivo, Echinochloa crus-galli
Procedure: Weed seeds or nutlets of the desired test plant species were planted in puddled soil (mud) prepared by mixing a shredded, non-sterilized mineral soil (50.5 percent silt, 25.5 percent clay, and 24 percent sand, with a pH of about 7.6 and an organic matter content of about 2.9 percent) and water at a 1:1 volumetric ratio. The prepared mud was dispensed in 365 mL aliquots into 16-ounce (oz.) non-perforated plastic pots with a surface area of 86.59 square centimeters (cm^2) leaving a headspace of 3 centimeters (cm) in each pot. Rice seeds were planted in Sun Gro MetroMix® 306 planting mixture, which typically has a pH of 6.0 to 6.8 and an organic matter content of about 30 percent, in plastic plug trays. Seedlings at the second or third leaf stage of growth were transplanted into 860 mL of mud contained in 32-oz. non-perforated plastic pots with a surface area of 86.59 cm^2 4 days prior to herbicide application. The paddy was created by filling the headspace of the pots with 2.5 to 3 cm of water. When required to ensure good germination and healthy plants, a fungicide treatment and/or other chemical or physical treatment was applied. The plants were grown for 4-22 days in a greenhouse with an approximate 14 h photoperiod which was maintained at about 29° C. during the day and about 26° C. during the night. Nutrients were added as Osmocote® (17:6:10, N:P:K+minor nutrients) at 2 grams (g) per 16-oz. pot and 4 g per 32-oz. pot. Water was added on a regular basis to maintain the paddy flood, and supplemental lighting was provided with overhead metal halide 1000-Watt lamps as necessary. The plants were employed for testing when they reached the first through fourth true leaf stage. […]
(§10) Treatment requirements for each compound or herbicidal component were calculated based upon the rates being tested, the concentration of active ingredient or acid equivalent in the formulation, an application volume of 2 mL per component per pot, and an application area of 86.59 cm^2 per pot.
For formulated compounds, a measured amount was placed in an individual 100 or 200 mL glass vial and was dissolved in a volume of 1.25% (v/v) AgriDex® crop oil concentrate to obtain application solutions. […]
The treated plants and control plants were placed in a greenhouse as described above and water was added as needed to maintain a paddy flood. After approximately 3 weeks the condition of the test plants as compared with that of the untreated plants was determined visually and scored on a scale of 0 to 100 percent where 0 corresponds to no injury or growth inhibition and 100 corresponds to complete kill. […]

CYPRO = assay: as above; assay type: in vivo, Cyperus rotundus; details: 21 DAA
Procedure: Weed seeds or nutlets of the desired test plant species were planted in puddled soil (mud) prepared by mixing a shredded, non-sterilized mineral soil (50.5 percent silt, 25.5 percent clay, and 24 percent sand, with a pH of about 7.6 and an organic matter content of about 2.9 percent) and water at a 1:1 volumetric ratio. The prepared mud was dispensed in 365 mL aliquots into 16-ounce (oz.) non-perforated plastic pots with a surface area of 86.59 square centimeters (cm^2) leaving a headspace of 3 centimeters (cm) in each pot. Rice seeds were planted in Sun Gro MetroMix® 306 planting mixture, which typically has a pH of 6.0 to 6.8 and an organic matter content of about 30 percent, in plastic plug trays. Seedlings at the second or third leaf stage of growth were transplanted into 860 mL of mud contained in 32-oz. non-perforated plastic pots with a surface area of 86.59 cm^2 4 days prior to herbicide application. The paddy was created by filling the headspace of the pots with 2.5 to 3 cm of water. When required to ensure good germination and healthy plants, a fungicide treatment and/or other chemical or physical treatment was applied. The plants were grown for 4-22 days in a greenhouse with an approximate 14 h photoperiod which was maintained at about 29° C. during the day and about 26° C. during the night. Nutrients were added as Osmocote® (17:6:10, N:P:K+minor nutrients) at 2 grams (g) per 16-oz. pot and 4 g per 32-oz. pot. Water was added on a regular basis to maintain the paddy flood, and supplemental lighting was provided with overhead metal halide 1000-Watt lamps as necessary. The plants were employed for testing when they reached the first through fourth true leaf stage.
Treatments consisted of the acid or esters of 4-amino-3-chloro-5-fluoro-6-(4-chloro-2-fluoro-3-methoxy-phenyl)pyridine-2-carboxylic acid (compound A) each formulated as an SC (suspension concentrate) and various herbicidal components alone and in combination. Forms of compound A were applied on an acid equivalent basis.
Other […] components were applied on an active ingredient basis and consisted of etofenprox (technical grade material) and sulfoxaflor formulated as Sulfoxaflor WG.
as §10
For formulated compounds, a measured amount was placed in an individual 100 or 200 mL glass vial and was dissolved in a volume of 1.25% (v/v) AgriDex® crop oil concentrate to obtain application solutions.
For technical grade compounds, a weighed amount was placed in an individual 100 to 200 mL glass vial and was dissolved in a volume of acetone to obtain concentrated stock solutions.
Applications were made by injecting with a pipetter appropriate amounts of the application solutions, individually and sequentially, into the aqueous layer of the paddy. Control plants were treated in the same manner with the solvent blank. Applications were made so that all treated plant material received the same concentrations of acetone and crop oil concentrate.
The treated plants and control plants were placed in a greenhouse as described above and water was added as needed to maintain a paddy flood. After approximately 3 weeks the condition of the test plants as compared with that of the untreated plants was determined visually and scored on a scale of 0 to 100 percent where 0 corresponds to no injury or growth inhibition and 100 corresponds to complete kill.
Colby's equation was used to determine the herbicidal effects expected from the mixtures (Colby, S. R. Calculation of the synergistic and antagonistic response of herbicide combinations. Weeds 1967, 15, 20-22.). […]

SMILES	Visual Weed Control (%) - 22 DAA CYPIR Obs (CYPIR) [%]	Visual Weed Control (%) - 22 DAA ECHCO Obs (ECHCO; 480 g ai/ha alone) [%]	Visual Weed Control (%) - 22 DAA SCPJU Obs (SCPJU) [%]	pest or weed control at 480 g/ha (LEFCH; Dinebra chinensis, post-emergence, 528 h, read-out: Visual Weed Control (%) - 22 DAA LEFCH Obs) [%]	Visual Weed Control (%) - 22 DAA CYPES Obs (CYPES; 75 g ai/ha alone) [%]	Visual Weed Control (%) - 22 DAA CYPES Obs (CYPES; 150 g ai/ha alone) [%]	Visual Weed Control (%) - 22 DAA ECHCG Obs (ECHCG [1]; 75 g ai/ha alone) [%]	Visual Weed Control (%) - 22 DAA ECHCG Obs (ECHCG [1]; 150 g ai/ha alone) [%]	Visual Weed Control (%) - 19 DAA ECHCG Obs (ECHCG [1]; 300 g ai/ha alone) [%]	Visual Weed Control (%) - 22 DAA IPOHE Obs (IPOHE; 75 g ai/ha alone) [%]	Visual Weed Control (%) - 22 DAA IPOHE Obs (IPOHE; 150 g ai/ha alone) [%]	Visual Weed Control (%) - 21 DAA ECHCG Obs (ECHCG [2]; 75 g ai/ha alone) [%]	Visual Weed Control (%) - 21 DAA ECHCG Obs (ECHCG [2]; 150 g ai/ha alone) [%]	Visual Weed Control (%) - 21 DAA ECHCG Obs (ECHCG [2]; 300 g ai/ha alone) [%]	Visual Weed Control (%) - 19 DAA ECHCO Obs (ECHCO; 300 g ai/ha alone) [%]	Visual Weed Control (%) - 21 DAA CYPRO Obs (CYPRO; 75 g ai/ha alone) [%]	Visual Weed Control (%) - 21 DAA CYPRO Obs (CYPRO; 150 g ai/ha alone) [%]	Visual Weed Control (%) - 21 DAA CYPRO Obs (CYPRO; 300 g ai/ha alone) [%]	Visual Weed Control (%) - 19 DAA LEFCH Obs (LEFCH; 300 g ai/ha alone) [%]	pest or weed control at 150 g/ha (LEFCH; Dinebra chinensis, post-emergence, 528 h, 150 g ai/ha alone, read-out: Visual Weed Control (%) - 22 DAA LEFCH Obs) [%]
CNC(=O)CSP(=S)(OC)OC [Dimethoate, O,O-dimethyl S-methylcarbamoylmethyl phosphorodithioate]	0	10	0	0																
CCOc1ccc(C(C)(C)COCc2cccc(Oc3ccccc3)c2)cc1 [Etofenprox, 2-(4-ethoxyphenyl)-2-methylpropyl 3-phenoxybenzyl ether]					0	0	0	0	0	0	0	0	0	0	0	0	0	0	0	0
